Source: the supplement of paper PMC10733146

Assays:
Assay in all cases: viability relative to DMSO control (fraction); higher = less drug effect (more viable cells)
Conditions in all cases: 48 h
[1] = system: primary MCL patient cells (S053)
Procedure, shortened: (§1)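 Using 384-well plates with compounds already plated at five concentrations, one well per concentration, 4 × 10^4 primary mononuclear tumour cells were added per well. Cells were Ficoll-isolated from blood or bone marrow or came from processed lymph node, fresh or cryopreserved. They were kept for 48 h at 37 °C and 5% CO2 in RPMI-1640 supplemented with penicillin/streptomycin, L-glutamine and human serum, and viability was read as CellTiter-Glo luminescence relative to the median of 16 inner DMSO wells.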

[2] = system: primary AML patient cells (S055)
Procedure, shortened: as §1

[3] = system: primary AML patient cells (S037)
Procedure, shortened: as §1

[4] = system: primary BL patient cells (S005)
Procedure, shortened: as §1

[5] = system: primary DLBCL patient cells (S082)
Procedure, shortened: as §1

[6] = system: primary AML patient cells (S002)
Procedure, shortened: as §1

[7] = system: primary CLL patient cells (S043)
Procedure, shortened: as §1

[8] = system: primary AML patient cells (S025)
Procedure, shortened: as §1

[9] = system: primary AML patient cells (S091)
Procedure, shortened: as §1

[10] = system: primary AML patient cells (S060)
Procedure, shortened: as §1

[11] = system: primary B-PLL patient cells (S016)
Procedure, shortened: as §1

[12] = system: primary AML patient cells (S089)
Procedure, shortened: as §1

[13] = system: primary MCL patient cells (S068)
Procedure, shortened: as §1

[14] = system: primary AML patient cells (S009)
Procedure, shortened: as §1

[15] = system: primary AML patient cells (S021)
Procedure, shortened: as §1

[16] = system: primary AML patient cells (S071)
Procedure, shortened: as §1

[17] = system: primary AML patient cells (S017)
Procedure, shortened: as §1

[18] = system: primary T-PLL patient cells (S008)
Procedure, shortened: as §1

[19] = system: primary AML patient cells (S081)
Procedure, shortened: as §1

[20] = system: primary AML patient cells (S072)
Procedure, shortened: as §1

SMILES: Nc1ncn([C@@H]2O[C@H](CO)[C@@H](O)[C@H]2O)c(=O)n1 [Azacytidine (Vidaza)]
- viability ([1]; 0.032 µM): 0.924
- viability ([1]; 0.16 µM): 0.999
- viability ([1]; 0.8 µM): 0.587
- viability ([1]; 4 µM): 0.351
- viability ([1]; 20 µM): 0.289
- viability ([2]; 0.032 µM): 1.04
- viability ([2]; 0.16 µM): 1.05
- viability ([2]; 0.8 µM): 0.806
- viability ([2]; 4 µM): 0.233
- viability ([2]; 20 µM): 0.0906
- viability ([3]; 0.032 µM): 1
- viability ([3]; 0.16 µM): 1.01
- viability ([3]; 0.8 µM): 0.901
- viability ([3]; 4 µM): 0.7
- viability ([3]; 20 µM): 0.595
- viability ([4]; 0.032 µM): 0.847
- viability ([4]; 0.16 µM): 0.862
- viability ([4]; 0.8 µM): 0.841
- viability ([4]; 4 µM): 0.766
- viability ([4]; 20 µM): 0.708
- viability ([5]; 0.032 µM): 0.969
- viability ([5]; 0.16 µM): 1.08
- viability ([5]; 0.8 µM): 1.07
- viability ([5]; 4 µM): 1.04
- viability ([5]; 20 µM): 0.26
- viability ([6]; 0.032 µM): 0.946
- viability ([6]; 0.16 µM): 0.979
- viability ([6]; 0.8 µM): 0.667
- viability ([6]; 4 µM): 0.31
- viability ([6]; 20 µM): 0.229
- viability ([7]; 0.032 µM): 0.937
- viability ([7]; 0.16 µM): 1.11
- viability ([7]; 0.8 µM): 0.889
- viability ([7]; 4 µM): 0.716
- viability ([7]; 20 µM): 0.55
- viability ([8]; 0.032 µM): 1.07
- viability ([8]; 0.16 µM): 0.961
- viability ([8]; 0.8 µM): 0.757
- viability ([8]; 4 µM): 0.285
- viability ([8]; 20 µM): 0.0947
- viability ([9]; 0.032 µM): 0.933
- viability ([9]; 0.16 µM): 1.02
- viability ([9]; 0.8 µM): 0.892
- viability ([9]; 4 µM): 0.788
- viability ([9]; 20 µM): 0.621
- viability ([10]; 0.032 µM): 1
- viability ([10]; 0.16 µM): 1.02
- viability ([10]; 0.8 µM): 1.02
- viability ([10]; 4 µM): 1.02
- viability ([10]; 20 µM): 0.923
- viability ([11]; 0.032 µM): 1.03
- viability ([11]; 0.16 µM): 1.06
- viability ([11]; 0.8 µM): 0.912
- viability ([11]; 4 µM): 0.142
- viability ([11]; 20 µM): 0.0474
- viability ([12]; 0.032 µM): 0.841
- viability ([12]; 0.16 µM): 1.05
- viability ([12]; 0.8 µM): 0.67
- viability ([12]; 4 µM): 0.0823
- viability ([12]; 20 µM): 0.0388
- viability ([13]; 0.032 µM): 0.969
- viability ([13]; 0.16 µM): 1.04
- viability ([13]; 0.8 µM): 0.798
- viability ([13]; 4 µM): 0.325
- viability ([13]; 20 µM): 0.232
- viability ([14]; 0.032 µM): 0.943
- viability ([14]; 0.16 µM): 0.905
- viability ([14]; 0.8 µM): 0.916
- viability ([14]; 4 µM): 0.695
- viability ([14]; 20 µM): 0.468
- viability ([15]; 0.032 µM): 0.982
- viability ([15]; 0.16 µM): 1.17
- viability ([15]; 0.8 µM): 0.936
- viability ([15]; 4 µM): 0.501
- viability ([15]; 20 µM): 0.31
- viability ([16]; 0.032 µM): 0.968
- viability ([16]; 0.16 µM): 0.985
- viability ([16]; 0.8 µM): 0.695
- viability ([16]; 4 µM): 0.29
- viability ([16]; 20 µM): 0.131
- viability ([17]; 0.032 µM): 0.912
- viability ([17]; 0.16 µM): 0.96
- viability ([17]; 0.8 µM): 0.935
- viability ([17]; 4 µM): 0.661
- viability ([17]; 20 µM): 0.562
- viability ([18]; 0.032 µM): 0.965
- viability ([18]; 0.16 µM): 1.02
- viability ([18]; 0.8 µM): 0.988
- viability ([18]; 4 µM): 0.704
- viability ([18]; 20 µM): 0.289
- viability ([19]; 0.032 µM): 0.955
- viability ([19]; 0.16 µM): 1.08
- viability ([19]; 0.8 µM): 1.04
- viability ([19]; 4 µM): 0.951
- viability ([19]; 20 µM): 0.832
- viability ([20]; 0.032 µM): 1.03
- viability ([20]; 0.16 µM): 1.02
- viability ([20]; 0.8 µM): 0.958
- viability ([20]; 4 µM): 0.83
- viability ([20]; 20 µM): 0.652

SMILES: Oc1ccc(/C=C/c2cc(O)cc(O)c2)cc1 [Resveratrol]
- viability ([1]; 0.024 µM): 0.75
- viability ([1]; 0.12 µM): 0.671
- viability ([1]; 0.6 µM): 0.595
- viability ([1]; 3 µM): 0.686
- viability ([1]; 15 µM): 0.772
- viability ([2]; 0.024 µM): 0.867
- viability ([2]; 0.12 µM): 0.931
- viability ([2]; 0.6 µM): 0.888
- viability ([2]; 3 µM): 0.83
- viability ([2]; 15 µM): 0.851
- viability ([3]; 0.024 µM): 0.792
- viability ([3]; 0.12 µM): 0.994
- viability ([3]; 0.6 µM): 0.881
- viability ([3]; 3 µM): 0.84
- viability ([3]; 15 µM): 0.96
- viability ([4]; 0.024 µM): 0.942
- viability ([4]; 0.12 µM): 0.954
- viability ([4]; 0.6 µM): 0.921
- viability ([4]; 3 µM): 0.9
- viability ([4]; 15 µM): 0.828
- viability ([5]; 0.024 µM): 0.79
- viability ([5]; 0.12 µM): 0.776
- viability ([5]; 0.6 µM): 0.828
- viability ([5]; 3 µM): 0.871
- viability ([5]; 15 µM): 0.954
- viability ([6]; 0.024 µM): 0.873
- viability ([6]; 0.12 µM): 0.932
- viability ([6]; 0.6 µM): 0.894
- viability ([6]; 3 µM): 0.796
- viability ([6]; 15 µM): 0.604
- viability ([7]; 0.024 µM): 0.825
- viability ([7]; 0.12 µM): 0.864
- viability ([7]; 0.6 µM): 0.821
- viability ([7]; 3 µM): 0.799
- viability ([7]; 15 µM): 0.711
- viability ([8]; 0.024 µM): 0.933
- viability ([8]; 0.12 µM): 0.921
- viability ([8]; 0.6 µM): 0.883
- viability ([8]; 3 µM): 0.891
- viability ([8]; 15 µM): 0.758
- viability ([9]; 0.024 µM): 0.863
- viability ([9]; 0.12 µM): 0.832
- viability ([9]; 0.6 µM): 0.868
- viability ([9]; 3 µM): 0.708
- viability ([9]; 15 µM): 0.553
- viability ([10]; 0.024 µM): 0.964
- viability ([10]; 0.12 µM): 0.99
- viability ([10]; 0.6 µM): 0.946
- viability ([10]; 3 µM): 0.918
- viability ([10]; 15 µM): 0.893
- viability ([11]; 0.024 µM): 0.852
- viability ([11]; 0.12 µM): 0.85
- viability ([11]; 0.6 µM): 0.864
- viability ([11]; 3 µM): 0.907
- viability ([11]; 15 µM): 0.787
- viability ([12]; 0.024 µM): 0.819
- viability ([12]; 0.12 µM): 0.652
- viability ([12]; 0.6 µM): 0.672
- viability ([12]; 3 µM): 0.53
- viability ([12]; 15 µM): 0.549
- viability ([13]; 0.024 µM): 0.614
- viability ([13]; 0.12 µM): 0.63
- viability ([13]; 0.6 µM): 0.639
- viability ([13]; 3 µM): 0.7
- viability ([13]; 15 µM): 1.16
- viability ([14]; 0.024 µM): 0.782
- viability ([14]; 0.12 µM): 0.815
- viability ([14]; 0.6 µM): 0.815
- viability ([14]; 3 µM): 0.789
- viability ([14]; 15 µM): 0.683
- viability ([15]; 0.024 µM): 0.84
- viability ([15]; 0.12 µM): 0.845
- viability ([15]; 0.6 µM): 0.772
- viability ([15]; 3 µM): 0.693
- viability ([15]; 15 µM): 0.55
- viability ([16]; 0.024 µM): 0.774
- viability ([16]; 0.12 µM): 0.734
- viability ([16]; 0.6 µM): 0.732
- viability ([16]; 3 µM): 0.688
- viability ([16]; 15 µM): 0.591
- viability ([17]; 0.024 µM): 0.89
- viability ([17]; 0.12 µM): 0.933
- viability ([17]; 0.6 µM): 0.92
- viability ([17]; 3 µM): 0.883
- viability ([17]; 15 µM): 0.902
- viability ([18]; 0.024 µM): 1
- viability ([18]; 0.12 µM): 1.02
- viability ([18]; 0.6 µM): 0.915
- viability ([18]; 3 µM): 0.966
- viability ([18]; 15 µM): 0.897
- viability ([19]; 0.024 µM): 0.814
- viability ([19]; 0.12 µM): 0.846
- viability ([19]; 0.6 µM): 0.806
- viability ([19]; 3 µM): 0.762
- viability ([19]; 15 µM): 0.794
- viability ([20]; 0.024 µM): 1.07
- viability ([20]; 0.12 µM): 0.797
- viability ([20]; 0.6 µM): 0.816
- viability ([20]; 3 µM): 0.798
- viability ([20]; 15 µM): 0.687
